Experimental data taken from publication PMC8010047, “New insights into the molecular mechanism behind mannitol and erythritol fructosylation by β-fructofuranosidase from Schwanniomyces occidentalis” (Scientific Reports, 2021).

Key:
[1] = biological target: T1, β-fructofuranosidase from Schwanniomyces occidentalis (Ffase) (Schwanniomyces occidentalis, UniProt E5D0X5, D50A); assay: X-ray crystallography (soaking); assay type: binding
T1 construct: expressed in Saccharomyces cerevisiae (SUC2-disrupted), secreted, DEAE-purified; homodimer of 160 kDa, 535 residues per subunit; GH32; deglycosylated for crystals
T1 sequence (E5D0X5 entry or part of it D50A): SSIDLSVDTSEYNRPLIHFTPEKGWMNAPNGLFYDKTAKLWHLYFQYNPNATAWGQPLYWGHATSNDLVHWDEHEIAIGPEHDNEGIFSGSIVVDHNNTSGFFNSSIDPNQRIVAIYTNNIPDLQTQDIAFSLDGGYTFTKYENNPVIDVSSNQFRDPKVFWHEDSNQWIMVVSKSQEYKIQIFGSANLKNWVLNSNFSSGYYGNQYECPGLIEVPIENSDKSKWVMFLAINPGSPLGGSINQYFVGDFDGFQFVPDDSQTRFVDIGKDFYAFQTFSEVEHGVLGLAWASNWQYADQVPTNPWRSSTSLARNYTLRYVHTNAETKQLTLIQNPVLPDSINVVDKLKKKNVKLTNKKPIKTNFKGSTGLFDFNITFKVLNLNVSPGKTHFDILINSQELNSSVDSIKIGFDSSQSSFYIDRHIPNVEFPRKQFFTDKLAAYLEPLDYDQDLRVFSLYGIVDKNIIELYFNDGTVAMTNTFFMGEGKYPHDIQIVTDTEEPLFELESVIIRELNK

[2] = biological target: T1, β-fructofuranosidase from Schwanniomyces occidentalis (Ffase); assay: X-ray crystallography; assay type: binding; details: crystals incubated with fructosyl-mannitol, sucrose from traces in the product; deglycosylated inactive mutant; active site subsites -1/+1; paper deposits 6S2B and 6S1T without assigning them

`OCC(O)C(O)CO[C@]1(CO)O[C@H](CO)[C@@H](O)[C@@H]1O` (stereo partly drawn) [fructosyl-erythritol, 1/4-O-β-D-fructofuranosyl-D-erythritol] was tested, and the “X-ray crystallography (soaking)” value ([1]; 100 mM ligand soak, pH 6.0, deglycosylated inactive mutant, active site subsites -1/+1, 1.88 Å, paper deposits 6S2B and 6S1T without assigning them) was “The formation of Ffase-D50A/fructosyl-erythritol complex was clearly detected”.

`OC[C@H]1O[C@@](CO)(O[C@H]2O[C@H](CO)[C@@H](O)[C@H](O)[C@H]2O)[C@@H](O)[C@@H]1O` [sucrose] was tested, and the X-ray crystallography [2] was “only sucrose was observed in crystals grown in the presence of fructosyl-mannitol”.

With `OC[C@@]1(O)OC[C@@H](O)[C@@H](O)[C@@H]1O` [β-fructose] the “X-ray crystallography (soaking)” value ([1]; soaked with β-fructose plus mannitol or erythritol, active site, structure not deposited) was “only fructose was bound at the active site in both experiments”.
